Read-outs that look alike come from different tables or passages of the source. Non-standard residues stand in square brackets, D forms with d. No end group written: not given here. hArg = N=C(N)NCCCC[C@H](N)C(=O)O

One data set deals with Nmur1 knockout mice. Briefly: Food intake and weight gain in Nmur1 knockout mice after peripheral administration. Format: in vivo. As to conditions: administered peripherally.
The subject of another data set is plasma glucose levels. In words: Oral glucose tolerance test, plasma glucose. It is filed as in vivo, mice. Conditions: 15 minutes after oral glucose tolerance test (FIG. 6A). The procedure:
(§1) The Oral Glucose Tolerance Test (OGTT) was performed as follows: Ad libitum fed male diet-induced obese mice were weighed and dosed subcutaneously about 30 minutes prior to the onset of the dark phase of the light cycle. Animals were not given food after dosing. The next day, approximately 18-hours after dosing, basal glucose levels were measured from animals by tail blood. Animals were then administered a glucose dose (1.5 g/kg) by oral gavage and fifteen minutes after dosing with glucose, plasma was collected to evaluate glucagon and glucose levels.
(§2) Diet-induced obese mice (DIO) were purchased from Taconic Farms. NMUR1 knockout (Nmur1−/−) mice were generated using standard homologous recombination techniques. U.S. Published Application No. 20080172752 discloses NMUR1 knockout mice. NMUR2 knockout (Nmur2−/−) mice were licensed from Deltagen Inc., San Mateo, Calif. and subsequently transferred to Taconic Farms. Mice were individually housed in Tecniplast cages in a conventional SPF facility. Mice were initially maintained on a regular chow diet and then early in their life were switched to a high fat diet (D12492: 60% kcal from fat; Research Diets, Inc., New Brunswick, N.J.) with ad libitum access to water in a 12-hour light/12-hour dark cycle.

In a further data set the test system is PYY levels in plasma. In words: Plasma PYY levels in diet-induced obese mice after subcutaneous dosing. It is filed as in vivo. On the procedure:
(§3) Animal dosing was as follows. Ad libitum fed male diet-induced obese mice were weighed and dosed subcutaneously about 30 minutes prior to the onset of the dark phase of the light cycle. Animals were either not given food or allowed food during treatment. For NMU studies, plasma was collected by cardiac sticks at two or four hours post dose. For studies with the PEGylated NMU analog, plasma was collected at multiple time points up to 18-hours post dose.
(§4) GLP-1 levels in plasma were measured using the Total GLP-1 kit from Meso Scale Discovery, Gaithersburg, Md. Glucagon levels were measured using the Metabolic Multiplex kit from Meso Scale Discovery, Gaithersburg, Md. PYY levels were measured using the PYY Luminex assay from Millipore, Billerica, Mass. The data shown reports of glucagon, PYY and GLP-1 levels as pg/mL (all values are reported as mean±SEM and data was analyzed using a two-tailed unpaired Student's t test; p values ≦0.05 were reported as significant and are denoted with an asterisk).
as §2

The subject of data set [1] is glucagon levels in plasma. Briefly: Oral glucose tolerance test, plasma glucagon. Format: in vivo, mice. Conditions: 15 minutes after oral glucose tolerance test (FIG. 6B). The procedure: as §1, §4
Diet-induced obese mice (DIO) were purchased from Taconic Farms. NMUR1 knockout (Nmur1−/−) mice were generated using standard homologous recombination techniques. U.S. Published Application No. 20080172752 discloses NMUR1 knockout mice. […]

For data set [2], the system named is total GLP-1 levels in plasma. In words: Plasma total GLP-1 levels in diet-induced obese mice after subcutaneous dosing. Format: in vivo. As to conditions: for total GLP-1 levels: 10 mpk. On the procedure: as §3, §4, §2
The next data set has as its system NMUR1 or NMUR2 receptors. In words: Receptor specificity: binding and activation of NMUR1 or NMUR2. It is filed as biochemical. Conditions: bind and activate.
The next data set relates to GLP-1 levels in plasma. Briefly: Plasma GLP-1 levels in wild-type, Nmur1-deficient and Nmur2-deficient mice. It is filed as in vivo. Conditions: four-hours post dose, absence of food (FIG. 3). The procedure:
as §4, §2
Plasma was collected from wild-type, Nmur1-deficient and Nmur2-deficient mice four-hours post dose in the absence of food.

The test system of the next data set is mice. As to conditions: cited from earlier work.

As for “Ac-C2FRVDEEFQSPFASQSRGYFLFRPRN-CONH2 (Ac-C((PEG)2 40 kDa)FRVDEEFQSPFASQSRGYFLFRPRN-NH2; also: PEG size not given here) [NMU12, PEGylated NMU analog; differs from NMU9 by the source of the PEG]”, the food intake entry in the data set on Nmur1 knockout mice (Nmur1 knockout mice) is “reduce food intake”. In the data set on Nmur1 knockout mice (Nmur1 knockout mice), the weight gain entry was “reduce weight gain”. In the data set with Nmur1 knockout mice (inferred from effect in Nmur1 knockout mice), the “crossing the blood-brain barrier” value is “able to cross the blood-brain barrier”. The plasma glucose levels result in the data set on plasma glucose levels (0.1 mpk) and in the data set on plasma glucose levels (1 mpk) was “reduced” throughout. Also, the PYY levels entry in the data set with PYY levels in plasma (10 mpk, 18-hr post dose, absence of food (FIG. 4B)) is “did not increase”. Besides, the “PYY levels in plasma” value in the data set with PYY levels in plasma (18-hours post dose, presence of food, obese mice (FIG. 4A)) is “dose-dependently increased”. The glucagon levels entry in data set [1] (0.1 mpk) and in data set [1] (1 mpk) was “reduced” each time. Also, the “total GLP-1 levels” value in data set [2] (18-hours post dose, absence of food (FIG. 5B)) was “increased”; in data set [2] (18-hours post dose, presence of food (FIG. 5A)), “increased”.
For the substance FALFRPRN-CONH2 (FALFRPRN-NH2), the “receptor specificity (NMUR1 / NMUR2)” value with NMUR1 or NMUR2 receptors is recorded as “bispecific”.
Consider “FRVDEEFQSPFASQSRGFWLFRA-(Harg)-N-CONH2 (FRVDEEFQSPFASQSRGFWLFRA[hArg]N-NH2; N-terminus assumed; SMILES CC(C)C[C@H](NC(=O)[C@H](Cc1c[nH]c2ccccc12)NC(=O)[C@H](Cc1ccccc1)NC(=O)CNC(=O)[C@H](CCCNC(=N)N)NC(=O)[C@H](CO)NC(=O)[C@H](CCC(N)=O)NC(=O)[C@H](CO)NC(=O)[C@H](C)NC(=O)[C@H](Cc1ccccc1)NC(=O)[C@@H]1CCCN1C(=O)[C@H](CO)NC(=O)[C@H](CCC(N)=O)NC(=O)[C@H](Cc1ccccc1)NC(=O)[C@H](CCC(=O)O)NC(=O)[C@H](CCC(=O)O)NC(=O)[C@H](CC(=O)O)NC(=O)[C@@H](NC(=O)[C@H](CCCNC(=N)N)NC(=O)[C@@H](N)Cc1ccccc1)C(C)C)C(=O)N[C@@H](Cc1ccccc1)C(=O)N[C@@H](CCCNC(=N)N)C(=O)N[C@@H](C)C(=O)N[C@@H](CCCCNC(=N)N)C(=O)N[C@@H](CC(N)=O)C(N)=O)”, for which the “receptor specificity (NMUR1 / NMUR2)” value in the data set on NMUR1 or NMUR2 receptors was “bispecific”.
Take “FRVDEEFQSPFASQSRGFWLFRP-(Harg)-N-CONH2 (FRVDEEFQSPFASQSRGFWLFRP[hArg]N-NH2; N-terminus assumed; SMILES CC(C)C[C@H](NC(=O)[C@H](Cc1c[nH]c2ccccc12)NC(=O)[C@H](Cc1ccccc1)NC(=O)CNC(=O)[C@H](CCCNC(=N)N)NC(=O)[C@H](CO)NC(=O)[C@H](CCC(N)=O)NC(=O)[C@H](CO)NC(=O)[C@H](C)NC(=O)[C@H](Cc1ccccc1)NC(=O)[C@@H]1CCCN1C(=O)[C@H](CO)NC(=O)[C@H](CCC(N)=O)NC(=O)[C@H](Cc1ccccc1)NC(=O)[C@H](CCC(=O)O)NC(=O)[C@H](CCC(=O)O)NC(=O)[C@H](CC(=O)O)NC(=O)[C@@H](NC(=O)[C@H](CCCNC(=N)N)NC(=O)[C@@H](N)Cc1ccccc1)C(C)C)C(=O)N[C@@H](Cc1ccccc1)C(=O)N[C@@H](CCCNC(=N)N)C(=O)N1CCC[C@H]1C(=O)N[C@@H](CCCCNC(=N)N)C(=O)N[C@@H](CC(N)=O)C(N)=O)”: the “receptor specificity (NMUR1 / NMUR2)” value with NMUR1 or NMUR2 receptors is “bispecific”.
Take “FRVDEEFQSPFASQSRGYFLFRPRN-CONH2 (FRVDEEFQSPFASQSRGYFLFRPRN-NH2) [NMU]”: the “increase of PYY levels” value in the data set on PYY levels in plasma (10 mpk, four-hours post dose, obese mice (FIG. 1A)) is reported as “about two-fold”. The PYY levels result in the data set on PYY levels in plasma (10 mpk, four-hours post dose, obese mice (FIG. 1B)) is recorded as “increased”; with PYY levels in plasma (10 mpk, two-hours post dose, obese mice (FIG. 1B)), “increased”. Further, the GLP-1 levels result in the data set with GLP-1 levels in plasma (Nmur1-deficient mice) is given as “not”; with GLP-1 levels in plasma (Nmur2-deficient mice) it was “Increased”; with GLP-1 levels in plasma (wild-type mice) it was “Increased”. Also, the “total GLP-1 levels” value in data set [2] (four-hours post dose, obese mice (FIG. 2A)) was “increased”. Moreover, the “total GLP-1” value in data set [2] (chronic treatment 3 mpk/day subcutaneously for two weeks (FIG. 2B)) was “significant increase”. Moreover, in the data set on mice (acute administration, centrally or peripherally, mice), the food intake entry is “reduce”. Also, the core body temperature result with mice (acute peripheral administration, mice) is recorded as “dose-dependently increases”. Moreover, the anorectic actions entry was “present” with mice (centrally administered, NMUR1-deficient (Nmur1-/-) mice); “absent” in the data set on mice (centrally administered, NMUR2-deficient (Nmur2-/-) mice); “absent” in the data set with mice (peripherally administered, Nmur1-/- mice); “present” in the data set on mice (peripherally administered, Nmur2-/- mice). Further, the “food intake, body weight and adiposity” value in the data set with mice (chronic administration, centrally or peripherally, mice) is “reduces”.
As to “rat NMU-23: full length NMU, a 23-mer (NMU-23) in rats and mice (YKVNEYQGPVAPSGGFFLFRPRN; ends and bridges not checked; UniProt P12760 144-166, looked up) [reference compound]”, the “body weight, body composition, body temperature and food intake” value in the data set with mice (chronic central administration, Nmur2-/- transgenic mice) was “largely unaffected”. In the data set with mice (chronic peripheral administration, Nmur1-/- transgenic mice), the “body weight, body composition and food intake” value was “largely unaffected”.
